In brackets after ≈: the same amount, converted by molar mass.

The test system of the first data set is WI-38. The data set is described as follows: Effective concentration required for cytotoxicity against normal human WI-38 cell line. Type of data set: functional, cell-based.
Conditions: not given
For the molecule `CCOC(=O)c1oc2cc(-c3ccccc3)cc(O)c2c1C`, the EC50 (usually the concentration at which the effect is half-maximal) is greater than 4 µg/mL.

Tested on in the next data set: not listed separately
The data set is described as follows: Partition coefficient (logP). Type of data set: physicochemical. The note with it: octanol/water.
With `CCOC(=O)c1oc2cc(-c3ccccc3)cc(O)c2c1C`, the logP – broadly, a log measure of how a compound divides between an organic and an aqueous phase – amounted to 2.6.
Same read-out and setting: under `COc1cccnc1C(=O)c1oc2cc(-c3ccccc3)cc(O)c2c1C` stands 2.2; under `COc1ccc(C(=O)c2[nH]c3cc(-c4cccc(F)c4)cc(O)c3c2C)c(OC)c1`, 2.7; under `COc1ccc(C(=O)c2oc3cc(-c4cccc(F)c4)cc(O)c3c2C)c(OC)c1`, 2.7.
`CCOC(=O)c1oc2cc(-c3cccc(F)c3)cc(O)c2c1C`: the logP stood at 2.7.
In turn, `COc1cccnc1C(=O)c1oc2cc(-c3cccc(F)c3)cc(O)c2c1C` had a logP of 2.3.
With `CCOC(=O)c1[nH]c2cc(-c3ccccc3)cc(O)c2c1C`, the logP was 2.6.
The molecule `COc1ccc(C(=O)c2oc3cc(-c4ccccc4)cc(O)c3c2C)c(OC)c1` registered a logP of 2.6.

Tested on in the next data set: not listed separately
The data set is described as follows: Effective concentration required for cytotoxicity against human VA-13 cell line.
Conditions: not given
Format: functional, cell-based.
The molecule `CCOC(=O)c1oc2cc(-c3ccccc3)cc(O)c2c1C` came in with an EC50 of 0.04 µg/mL (≈ 0.135 µM).
On the same count and under the same terms, the result for `CCOC(=O)c1oc2cc(-c3ccc(OCC)cc3)cc(O)c2c1C` reads greater than 4 µg/mL; that for `CCOC(=O)c1oc2cc(-c3cccc(O)c3)cc(O)c2c1C`, 0.52 µg/mL (≈ 1.66 µM).
On to `CCOC(=O)c1oc2cc(-c3ccc(OC)cc3)cc(O)c2c1C`, for which the EC50 was greater than 4 µg/mL.
The same measure, in the same setting: under `CCOC(=O)c1oc2cc(-c3ccccc3OCc3ccccc3)cc(O)c2c1C` stands greater than 4 µg/mL; under `CCOC(=O)c1oc2cc(-c3ccc(O)cc3)cc(O)c2c1C`, 0.075 µg/mL (≈ 0.24 µM).
Turning to `CCOC(=O)c1oc2cc(-c3cccc(OC)c3)cc(O)c2c1C`, the EC50 came to 0.08 µg/mL (≈ 0.245 µM).
In the case of `CCOC(=O)c1oc2cc(-c3ccc(Br)cc3)cc(O)c2c1C`, the EC50 is greater than 4 µg/mL.
For the molecule `CCOC(=O)c1oc2cc(-c3ccccc3O)cc(O)c2c1C`, the EC50 was determined as 0.31 µg/mL (≈ 0.993 µM).
The same measure, in the same setting: the result for `CCOC(=O)c1oc2cc(-c3cccc(OCc4ccccc4)c3)cc(O)c2c1C` reads 0.85 µg/mL (≈ 2.11 µM); that for `COc1cccnc1C(=O)c1oc2cc(-c3ccccc3)cc(O)c2c1C`, 0.028 µg/mL (≈ 0.0779 µM).
In turn, `CCOC(=O)c1oc2cc(-c3c(Cl)cccc3Cl)cc(O)c2c1C` yielded an EC50 greater than 4 µg/mL.
The molecule `CCOC(=O)c1oc2cc(-c3ccccc3OC)cc(O)c2c1C` displayed an EC50 of 0.38 µg/mL (≈ 1.16 µM).
The molecule `COc1ccc(C(=O)c2[nH]c3cc(-c4cccc(F)c4)cc(O)c3c2C)c(OC)c1` had a concentration for a half-maximal effect (EC50) of 0.12 µg/mL (≈ 0.296 µM).
`CCOC(=O)c1oc2cc(-c3cccc([N+](=O)[O-])c3)cc(O)c2c1C` had an EC50 of 0.075 µg/mL (≈ 0.22 µM).
`CCOC(=O)c1oc2cc(-c3ccccc3Cl)cc(O)c2c1C` came in with an EC50 of 0.35 µg/mL (≈ 1.06 µM).
`CCOC(=O)c1oc2cc(-c3cccc(Cl)c3)cc(O)c2c1C` came in with a concentration giving a half-maximal response (EC50) of 0.08 µg/mL (≈ 0.242 µM).
As to `CCOC(=O)c1oc2cc(-c3ccc(OCc4ccccc4)cc3)cc(O)c2c1C`, the EC50 is greater than 4 µg/mL.
Same read-out and setting: under `CCOC(=O)c1oc2cc(-c3cccc(C(F)(F)F)c3)cc(O)c2c1C` stands 0.7 µg/mL (≈ 1.92 µM).
The molecule `CCOC(=O)c1oc2cc(CC(C)(C)C)cc(O)c2c1C` had an EC50 greater than 4 µg/mL.
`CCOC(=O)c1oc2cc(-c3cccc(Br)c3)cc(O)c2c1C` returned an EC50 of 0.085 µg/mL (≈ 0.227 µM).
Still for that read-out and setting: the result for `COc1ccc(C(=O)c2oc3cc(-c4cccc(F)c4)cc(O)c3c2C)c(OC)c1` reads 0.03 µg/mL (≈ 0.0738 µM); that for `CCOC(=O)c1oc2cc(-c3cccs3)cc(O)c2c1C`, 0.16 µg/mL (≈ 0.529 µM); that for `CCOC(=O)c1oc2cc(-c3cccc(C)c3)cc(O)c2c1C`, 0.08 µg/mL (≈ 0.258 µM).
Molecule `CCOC(=O)c1oc2cc(-c3cccc(F)c3)cc(O)c2c1C` registered an EC50 of 0.017 µg/mL (≈ 0.0541 µM).
Molecule `COc1cccnc1C(=O)c1oc2cc(-c3cccc(F)c3)cc(O)c2c1C` returned an EC50 of 0.027 µg/mL (≈ 0.0715 µM).
`CCOC(=O)c1[nH]c2cc(-c3ccccc3)cc(O)c2c1C`: the EC50 was found to be 0.47 µg/mL (≈ 1.59 µM).
On the same count and under the same terms, under `COc1ccc(C(=O)c2oc3cc(-c4ccccc4)cc(O)c3c2C)c(OC)c1` stands 0.04 µg/mL (≈ 0.103 µM); under `CCOC(=O)c1oc2cc(C3CCCCC3)cc(O)c2c1C`, greater than 4 µg/mL; under `CCOC(=O)c1oc2cc(-c3c(F)cccc3Cl)cc(O)c2c1C`, greater than 4 µg/mL.
Take `CCOC(=O)c1oc2cc(-c3ccc(OCCc4ccccc4)cc3)cc(O)c2c1C`: the EC50 was greater than 4 µg/mL.
`CCOC(=O)c1oc2cc(-c3ccc(Cl)cc3Cl)cc(O)c2c1C`: the EC50 was greater than 4 µg/mL.
Still for that read-out and setting: under `CCOC(=O)c1oc2cc(-c3cccc(N)c3)cc(O)c2c1C` stands 0.09 µg/mL (≈ 0.289 µM); under `CCOC(=O)c1oc2cc(-c3ccc(C)cc3)cc(O)c2c1C`, greater than 4 µg/mL; under `CCOC(=O)c1oc2cc(-c3ccccc3Br)cc(O)c2c1C`, 0.39 µg/mL (≈ 1.04 µM).
`CCOC(=O)c1oc2cc(-c3ccco3)cc(O)c2c1C` gave an EC50 of 0.18 µg/mL (≈ 0.629 µM).
Same read-out and setting: the result for `CCOC(=O)c1oc2cc(-c3ccc(OC)c(OC)c3)cc(O)c2c1C` reads greater than 4 µg/mL; that for `CCOC(=O)c1oc2cc(-c3ccccc3F)cc(O)c2c1C`, 0.048 µg/mL (≈ 0.153 µM).
The same measure, in the same setting: the result for `CCOC(=O)c1oc2cc(-c3ccc(Cl)cc3)cc(O)c2c1C` reads greater than 4 µg/mL; that for `CCOC(=O)c1oc2cc(-c3ccc(F)cc3)cc(O)c2c1C`, 0.37 µg/mL (≈ 1.18 µM).

Source of the values: ChEMBL document CHEMBL1137172, “A library synthesis of 4-hydroxy-3-methyl-6-phenylbenzofuran-2-carboxylic acid ethyl ester derivatives as anti-tumor agents” (Bioorg Med Chem Lett, 2004).
